Values of other authors as cited in US6900176B2, “Pest control agents/depsipeptides” (priority 1999, dated 2005).

Test system: silkworms
Settings: known from the literature (Kanaoka et al. 1979; JP 05 271 013)

SMILES | insecticidal activity against silkworms
CC(C)C[C@H]1C(=O)O[C@H](Cc2ccccc2)C(=O)N(C)[C@@H](CC(C)C)C(=O)O[C@H](C)C(=O)N(C)[C@@H](CC(C)C)C(=O)O[C@H](Cc2ccccc2)C(=O)N(C)[C@@H](CC(C)C)C(=O)O[C@H](C)C(=O)N1C [PF1022A] | insecticidal activity
CC(C)C[C@H]1C(=O)O[C@H](C(C)C)C(=O)N(C)[C@@H](CC(C)C)C(=O)O[C@H](C(C)C)C(=O)N(C)[C@@H](CC(C)C)C(=O)O[C@H](C(C)C)C(=O)N(C)[C@@H](CC(C)C)C(=O)O[C@H](C(C)C)C(=O)N1C [bassianolide] | insecticidal activity
